Source: article PMC7026418, “The kinase polypharmacology landscape of clinical PARP inhibitors” (Scientific Reports, 2020)
Read-outs that look alike come from different tables or passages of the source.

What was measured:
Assay in all cases: biochemical
Set-up in all cases: DiscoveRx KINOMEscan active site-directed competition binding; percent of control kinase bound to immobilised ligand
[1] = molecular target: T1, EPHA3 (Homo sapiens, UniProt P29320)
T1 sequence (P29320 1-983): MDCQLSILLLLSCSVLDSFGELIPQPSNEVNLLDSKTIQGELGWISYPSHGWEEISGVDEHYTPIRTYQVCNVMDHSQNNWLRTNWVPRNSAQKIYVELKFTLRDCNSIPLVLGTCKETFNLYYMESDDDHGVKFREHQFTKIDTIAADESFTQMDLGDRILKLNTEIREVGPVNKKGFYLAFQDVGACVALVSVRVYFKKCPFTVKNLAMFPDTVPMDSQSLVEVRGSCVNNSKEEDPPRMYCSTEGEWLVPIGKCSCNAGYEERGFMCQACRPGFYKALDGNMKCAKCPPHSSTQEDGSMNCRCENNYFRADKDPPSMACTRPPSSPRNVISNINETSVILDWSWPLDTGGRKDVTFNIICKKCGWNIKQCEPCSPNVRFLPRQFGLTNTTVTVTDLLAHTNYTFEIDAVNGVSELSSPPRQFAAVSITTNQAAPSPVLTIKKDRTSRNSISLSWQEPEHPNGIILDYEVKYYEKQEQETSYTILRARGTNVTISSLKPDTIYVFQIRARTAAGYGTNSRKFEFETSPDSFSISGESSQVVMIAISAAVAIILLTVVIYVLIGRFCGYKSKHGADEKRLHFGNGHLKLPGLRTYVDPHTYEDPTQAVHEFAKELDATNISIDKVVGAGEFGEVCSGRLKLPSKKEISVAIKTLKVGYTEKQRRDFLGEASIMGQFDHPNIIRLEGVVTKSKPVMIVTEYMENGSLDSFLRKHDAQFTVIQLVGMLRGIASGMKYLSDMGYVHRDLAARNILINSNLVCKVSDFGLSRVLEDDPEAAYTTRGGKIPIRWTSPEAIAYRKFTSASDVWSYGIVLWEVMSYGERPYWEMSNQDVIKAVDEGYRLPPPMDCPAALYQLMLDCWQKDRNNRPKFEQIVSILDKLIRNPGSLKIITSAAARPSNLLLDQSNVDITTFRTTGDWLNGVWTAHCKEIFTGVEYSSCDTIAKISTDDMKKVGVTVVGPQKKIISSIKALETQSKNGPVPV

[2] = molecular target: T2, PRKCI (Homo sapiens, UniProt P41743)
T2 sequence (P41743 1-596): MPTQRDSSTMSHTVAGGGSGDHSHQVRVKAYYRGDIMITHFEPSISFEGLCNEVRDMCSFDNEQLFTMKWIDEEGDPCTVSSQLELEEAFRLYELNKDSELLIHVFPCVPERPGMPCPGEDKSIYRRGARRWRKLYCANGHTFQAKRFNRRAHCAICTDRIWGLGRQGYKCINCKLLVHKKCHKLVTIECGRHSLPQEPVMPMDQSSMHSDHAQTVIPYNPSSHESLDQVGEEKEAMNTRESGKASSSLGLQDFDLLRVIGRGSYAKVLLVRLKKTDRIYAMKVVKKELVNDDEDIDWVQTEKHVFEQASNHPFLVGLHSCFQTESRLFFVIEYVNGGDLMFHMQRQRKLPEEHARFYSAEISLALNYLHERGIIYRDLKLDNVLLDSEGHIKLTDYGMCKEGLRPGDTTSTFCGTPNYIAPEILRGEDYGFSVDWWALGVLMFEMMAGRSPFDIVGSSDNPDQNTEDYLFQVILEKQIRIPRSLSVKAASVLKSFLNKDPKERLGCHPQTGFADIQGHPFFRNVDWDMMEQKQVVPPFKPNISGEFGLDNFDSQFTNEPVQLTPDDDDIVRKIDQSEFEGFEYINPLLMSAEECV

[3] = molecular target: T3, MAPKAPK5 (Homo sapiens, UniProt Q8IW41)
T3 sequence (Q8IW41 1-473): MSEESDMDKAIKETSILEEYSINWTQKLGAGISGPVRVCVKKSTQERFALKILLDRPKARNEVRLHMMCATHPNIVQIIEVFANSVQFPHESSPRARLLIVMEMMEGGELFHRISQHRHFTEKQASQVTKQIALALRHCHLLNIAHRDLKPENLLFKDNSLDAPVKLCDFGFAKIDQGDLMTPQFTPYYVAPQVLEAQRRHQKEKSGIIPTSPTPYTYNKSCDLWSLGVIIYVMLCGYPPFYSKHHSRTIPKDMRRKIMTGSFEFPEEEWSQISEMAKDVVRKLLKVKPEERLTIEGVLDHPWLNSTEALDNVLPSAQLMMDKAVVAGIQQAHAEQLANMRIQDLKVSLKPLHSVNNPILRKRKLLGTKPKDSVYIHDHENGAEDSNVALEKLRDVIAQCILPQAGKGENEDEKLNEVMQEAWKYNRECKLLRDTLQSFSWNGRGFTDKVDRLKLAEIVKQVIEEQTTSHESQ

[4] = molecular target: WNK3 (Homo sapiens, UniProt Q9BYP7)
WNK3, sequence (Q9BYP7 whole entry): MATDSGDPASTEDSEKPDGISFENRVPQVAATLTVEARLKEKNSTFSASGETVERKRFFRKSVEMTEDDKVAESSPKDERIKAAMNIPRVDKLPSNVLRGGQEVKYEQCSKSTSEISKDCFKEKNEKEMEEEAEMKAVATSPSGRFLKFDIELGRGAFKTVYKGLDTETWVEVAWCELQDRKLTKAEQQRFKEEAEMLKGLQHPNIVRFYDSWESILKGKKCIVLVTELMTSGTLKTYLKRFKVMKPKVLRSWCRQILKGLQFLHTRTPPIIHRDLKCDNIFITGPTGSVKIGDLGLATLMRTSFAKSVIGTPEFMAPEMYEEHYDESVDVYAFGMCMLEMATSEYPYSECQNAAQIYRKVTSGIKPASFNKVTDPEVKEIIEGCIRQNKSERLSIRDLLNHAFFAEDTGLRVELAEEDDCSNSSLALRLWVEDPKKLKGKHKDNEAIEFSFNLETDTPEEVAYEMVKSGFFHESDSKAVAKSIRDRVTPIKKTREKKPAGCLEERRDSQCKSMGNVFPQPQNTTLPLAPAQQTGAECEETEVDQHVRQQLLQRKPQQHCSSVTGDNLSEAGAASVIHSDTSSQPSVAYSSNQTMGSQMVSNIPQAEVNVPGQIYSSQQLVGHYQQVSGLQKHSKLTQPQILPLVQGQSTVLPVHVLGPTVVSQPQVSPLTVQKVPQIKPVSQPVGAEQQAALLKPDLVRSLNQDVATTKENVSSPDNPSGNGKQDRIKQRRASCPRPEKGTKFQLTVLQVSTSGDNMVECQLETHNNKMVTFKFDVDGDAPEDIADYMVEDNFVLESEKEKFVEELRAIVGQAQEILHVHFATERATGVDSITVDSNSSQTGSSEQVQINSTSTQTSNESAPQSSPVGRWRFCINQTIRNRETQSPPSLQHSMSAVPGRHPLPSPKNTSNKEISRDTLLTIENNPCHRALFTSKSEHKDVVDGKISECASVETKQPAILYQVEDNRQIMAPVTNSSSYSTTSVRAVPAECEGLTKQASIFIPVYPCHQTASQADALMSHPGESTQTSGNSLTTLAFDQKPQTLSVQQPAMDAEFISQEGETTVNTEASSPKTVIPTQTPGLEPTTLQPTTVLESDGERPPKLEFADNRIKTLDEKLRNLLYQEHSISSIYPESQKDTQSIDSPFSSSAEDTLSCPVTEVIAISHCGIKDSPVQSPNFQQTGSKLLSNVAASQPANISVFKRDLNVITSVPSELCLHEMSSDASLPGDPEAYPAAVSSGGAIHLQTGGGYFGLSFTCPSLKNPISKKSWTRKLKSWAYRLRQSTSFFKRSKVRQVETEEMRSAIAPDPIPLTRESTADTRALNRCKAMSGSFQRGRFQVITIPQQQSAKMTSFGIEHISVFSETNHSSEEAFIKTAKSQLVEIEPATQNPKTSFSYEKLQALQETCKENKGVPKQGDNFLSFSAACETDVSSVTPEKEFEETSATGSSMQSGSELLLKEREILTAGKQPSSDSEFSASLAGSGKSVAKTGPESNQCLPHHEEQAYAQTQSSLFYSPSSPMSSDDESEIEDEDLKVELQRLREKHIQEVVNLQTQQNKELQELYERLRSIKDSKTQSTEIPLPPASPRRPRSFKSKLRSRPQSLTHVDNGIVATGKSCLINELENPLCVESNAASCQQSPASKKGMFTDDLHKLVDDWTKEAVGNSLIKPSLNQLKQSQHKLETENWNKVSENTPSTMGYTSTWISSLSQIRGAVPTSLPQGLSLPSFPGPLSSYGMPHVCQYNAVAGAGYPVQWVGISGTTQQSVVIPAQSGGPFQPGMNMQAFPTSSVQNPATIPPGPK

[5] = read-out: Talazoparib (BMN 673) / %Ctrl @ 10000nM
[6] = read-out: Olaparib / %Ctrl @ 10000nM
[7] = read-out: Rucaparib / %Ctrl @ 10000nM, binding competition, % of control
[8] = read-out: Niraparib (MK-4827) / %Ctrl @ 10000nM

SMILES: Cn1ncnc1[C@H]1c2n[nH]c(=O)c3cc(F)cc(c23)N[C@@H]1c1ccc(F)cc1 [Talazoparib]
- percent of control binding at 10 µM [1, 5]: 100%
- percent of control binding at 10 µM [2, 5]: 78%
- percent of control binding at 10 µM [3, 5]: 93%
- percent of control binding at 10 µM [4, 5]: 100%

SMILES: O=C(c1cc(Cc2n[nH]c(=O)c3ccccc23)ccc1F)N1CCN(C(=O)C2CC2)CC1 [Olaparib]
- percent of control binding at 10 µM [1, 6]: 100%
- percent of control binding at 10 µM [2, 6]: 100%
- percent of control binding at 10 µM [3, 6]: 87%
- percent of control binding at 10 µM [4, 6]: 88%

SMILES: CNCc1ccc(-c2[nH]c3cc(F)cc4c3c2CCNC4=O)cc1 [Rucaparib]
- percent of control binding at 10 µM [1, 7]: 88%
- percent of control binding at 10 µM [2, 7]: 72%
- percent of control binding at 10 µM [3, 7]: 88%
- percent of control binding at 10 µM [4, 7]: 86%

SMILES: NC(=O)c1cccc2cn(-c3ccc([C@@H]4CCCNC4)cc3)nc12 [Niraparib]
- percent of control binding at 10 µM [1, 8]: 81%
- percent of control binding at 10 µM [2, 8]: 85%
- percent of control binding at 10 µM [3, 8]: 86%
- percent of control binding at 10 µM [4, 8]: 100%
